Reference: US20150315211A1, “SMALL MOLECULES FOR THE MODULATION OF MCL-1 AND METHODS OF MODULATING CELL DEATH, CELL DIVISION, CELL DIFFERENTIATION AND METHODS OF TREATING DISORDERS” (priority 2010, published 2015)
Read-outs that look alike come from different tables or passages of the source.

Tests used:
MCL-1ΔNΔC [1] = biological target: MCL-1ΔNΔC (Homo sapiens, UniProt Q07820); experiment: High-throughput competitive FP binding screen, FITC-MCL-1 SAHB/MCL-1ΔNΔC interaction; set-up: the C-terminal alpha-helix was deleted from each of these constructs; GST (N, cleaved yes); made in house
MCL-1ΔNΔC (Homo sapiens, UniProt Q07820), sequence (Q07820 172-320 limits assumed, stated change not applied): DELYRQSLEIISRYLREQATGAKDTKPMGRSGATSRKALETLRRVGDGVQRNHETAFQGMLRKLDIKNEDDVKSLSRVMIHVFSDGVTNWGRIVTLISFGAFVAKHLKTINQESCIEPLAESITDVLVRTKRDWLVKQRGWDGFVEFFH

BCL-XLΔC = BCL-XLΔC (Homo sapiens, UniProt Q07817); experiment: High-throughput competitive FP binding screen, FITC-BAD BH3/BCL-XLΔC interaction
BCL-XLΔC, sequence (Q07817 1-212 limits assumed, stated change not applied): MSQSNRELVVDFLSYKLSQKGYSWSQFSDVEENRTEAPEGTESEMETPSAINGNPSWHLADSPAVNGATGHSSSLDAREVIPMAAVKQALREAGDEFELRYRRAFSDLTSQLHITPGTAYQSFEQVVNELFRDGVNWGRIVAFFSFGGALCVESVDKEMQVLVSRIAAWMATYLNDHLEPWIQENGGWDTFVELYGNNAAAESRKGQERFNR

MCL-1ΔNΔC [2] = experiment: High-throughput competitive FP binding screen, FITC-MCL-1 SAHB/MCL-1ΔNΔC interaction
[3] = FITC-MCL-1 SAHB/MCL-1ΔNΔC interaction pair, competitive FP screen
[4] = FITC-BAD BH3/BCL-XLΔC interaction pair, competitive FP screen
[5] = selectivity for MCL-1ΔNΔC over BCL-XLΔC targeting (BCL-XL % Bound minus MCL-1 % Bound)

Structure (SMILES) | MCL-1% Bound (MCL-1ΔNΔC [1]; [3]) | BCL-XL % Bound (BCL-XLΔC; [4]) | Spec Values (MCL-1ΔNΔC [2]; [5]) | MCL-1% Bound (MCL-1ΔNΔC [1]) | BCL-XL % Bound (BCL-XLΔC) | Spec Values (MCL-1ΔNΔC [2])
O=C(O)c1cccc(-c2ccc(/C=C3\Sc4ccccc4C3=O)o2)c1 | 31.17% | 95.42% | 64.25 |  |  | 
O=S(=O)(NNc1cnc2ccccc2n1)c1ccccc1C(F)(F)F | 65.42% | 112.4% | 47.02 |  |  | 
CC1(C)CC(=O)C2=C(C1)Nc1ccc3ncccc3c1C2c1ccc(O)c(O)c1 (stereo not drawn) | 48.32% | 95.33% | 47.01 |  |  | 
N#C/C(=C/c1ccc(-c2ccc(C(=O)O)cc2)o1)c1ccc(Cl)cc1 | 35.83% | 82.47% | 46.64 |  |  | 
O=C(NC(=S)NCc1ccccc1)C1CCCC1 | 45.64% | 92.1% | 46.46 |  |  | 
CNC(=S)N/N=C1\CCOc2ccc3ccccc3c21 | 49.68% | 96.07% | 46.39 |  |  | 
CC1CCc2c(sc3ncn4c(S)nnc4c23)C1 (stereo not drawn) | 48.65% | 95.03% | 46.37 |  |  | 
Oc1ccc(SSc2ccc(O)cc2)cc1 | 58.12% | 104.4% | 46.28 |  |  | 
O=C(O)/C(S)=C\C=C\c1ccccc1 | 44.36% | 90.49% | 46.13 |  |  | 
CC1(C)c2ssc(=S)c2-c2ccccc2N1C(=O)CSC#N | 47.02% | 93.06% | 46.04 |  |  | 
CN1CCC(N(C)Cc2cc(C(C)(C)C)c(O)c(C(C)(C)C)c2)CC1 | 63.36% | 109.3% | 45.97 |  |  | 
O=C1c2ccccc2-c2onc3ccc(Oc4c(F)c(F)c(F)c(F)c4F)c1c23 | 40.76% | 86.73% | 45.97 |  |  | 
O=C1c2ccccc2CCC1Sc1nnc(-c2ccncc2)o1 (stereo not drawn) | 42.84% | 88.38% | 45.54 |  |  | 
N=C1NC(=O)/C(=C2/C(=O)Nc3ccc(Br)cc32)S1 | 50.06% | 95.58% | 45.52 |  |  | 
CCCCCSc1nnc(N/C=N/O)s1 | 52.76% | 98.25% | 45.49 |  |  | 
CCN(CC)c1ccc(C2C(C#N)=C(N)N(c3cccc(C)c3)C3=C2C(=O)CCC3)cc1 (stereo not drawn) | 53.01% | 98.46% | 45.46 |  |  | 
Oc1ccc(C2Oc3ccccc3C3CC(c4ccccc4O)=NN32)cc1 (stereo not drawn) | 47.99% | 93.42% | 45.43 |  |  | 
COC(=O)c1c(N)sc2c1Cc1ccccc1C2 | 47.69% | 92.93% | 45.24 |  |  | 
CC(C)CSC1=NSC2=NC(=O)/C(=C\c3ccc(SCc4ccco4)o3)C(=N)N12 | 37.61% | 82.8% | 45.2 |  |  | 
Cc1ccnc(NC(c2ccco2)c2c(C)[nH]c3ccccc23)c1 (stereo not drawn) | 49.8% | 94.99% | 45.19 |  |  | 
Cc1c(Cl)cccc1N1C(=O)CC(Sc2nnnn2-c2ccccc2)C1=O (stereo not drawn) | 52.43% | 97.5% | 45.07 |  |  | 

Structure (SMILES) | MCL-1% Bound (MCL-1ΔNΔC [1]; [3]) | BCL-XL % Bound (BCL-XLΔC; [4]) | Spec Values (MCL-1ΔNΔC [2]; [5]) | MCL-1% Bound (MCL-1ΔNΔC [1]) | BCL-XL % Bound (BCL-XLΔC) | Spec Values (MCL-1ΔNΔC [2])
O=c1cc(-c2ccccc2)oc2cc(O)c(O)c(O)c12 [Baicailen, reference compound] | 10.32% | 104.2% | 93.84 |  |  | 
CC1=C(O)C(=O)C=C2C1=CC=C1[C@@]2(C)CC[C@@]2(C)[C@@H]3C[C@](C)(C(=O)O)CC[C@]3(C)CC[C@]12C [Celastrol, reference compound] |  |  |  | 32.9% | 97.09% | 64.19
Oc1c(Cl)cc(Cl)c(Cl)c1Cc1c(O)c(Cl)cc(Cl)c1Cl [Hexachlorophene, reference compound] |  |  |  | 41.01% | 100.4% | 59.35
O=c1c(O)c(-c2cc(O)c(O)c(O)c2)oc2cc(O)cc(O)c12 [Myricetin, reference compound] | 34.13% | 102.4% | 68.23 |  |  | 
O=c1c(O)c(-c2ccc(O)c(O)c2)oc2cc(O)cc(O)c12 [Quercetin, reference compound] | 16.69% | 105.3% | 88.65 |  |  | 
O=C(OCC1O[C@H](OC(=O)c2cc(O)c(O)c(OC(=O)c3cc(O)c(O)c(O)c3)c2)[C@H](OC(=O)c2cc(O)c(O)c(OC(=O)c3cc(O)c(O)c(O)c3)c2)[C@@H](OC(=O)c2cc(O)c(O)c(OC(=O)c3cc(O)c(O)c(O)c3)c2)[C@@H]1OC(=O)c1cc(O)c(O)c(OC(=O)c2cc(O)c(O)c(O)c2)c1)c1cc(O)c(O)c(OC(=O)c2cc(O)c(O)c(O)c2)c1 (stereo partly drawn) [Tannic Acid, reference compound] | 15.94% | 98.26% | 82.32 |  |  | 
N#C/C(=C\c1ccc(O)c(O)c1)C(N)=S [Tyrphostin 47, reference compound] |  |  |  | 34.55% | 100.8% | 66.21
Cc1ccc2c(c1)CC[C@H]1C3CC[C@H](NCCCCCCN4C(=O)C=CC4=O)[C@@]3(C)CC[C@H]21 (stereo partly drawn) [U73122, reference compound] | 56.6% | 106.3% | 49.67 |  |  | 
O=c1c(O)c(-c2cc(O)c(O)c(O)c2)oc2cc(O)cc(O)c12 [drawing 14] | 34.13% | 102.4% | 68.23 |  |  | 
N#C/C(=C\c1ccc(O)c(O)c1)C(N)=S [drawing 16] |  |  |  | 34.55% | 100.8% | 66.21
COc1ccc2c(c1)CC[C@@H]1C2CC[C@@]2(C)C1CC[C@@H]2NCCCCCCN1C(=O)CCC1=O (stereo partly drawn) [drawing 18] | 56.6% | 106.3% | 49.67 |  |  | 
O=c1cc(-c2ccccc2)oc2cc(O)c(O)c(O)c12 [drawing 19] | 10.32% | 104.2% | 93.84 |  |  | 
O=c1oc2c(O)c(O)cc3c(=O)oc4c(O)c(O)cc1c4c23 [drawing 20] | 1.26% | 90.58% | 89.32 |  |  | 
Oc1c(Cl)cc(Cl)c(Cl)c1Cc1c(O)c(Cl)cc(Cl)c1Cl [drawing 23] |  |  |  | 41.01% | 100.4% | 59.35
O=C(OCC1O[C@H](OC(=O)c2cc(O)c(O)c(OC(=O)c3cc(O)c(O)c(O)c3)c2)[C@H](OC(=O)c2cc(O)c(O)c(OC(=O)c3cc(O)c(O)c(O)c3)c2)[C@@H](OC(=O)c2cc(O)c(O)c(OC(=O)c3cc(O)c(O)c(O)c3)c2)[C@@H]1OC(=O)c1cc(O)c(O)c(OC(=O)c2cc(O)c(O)c(O)c2)c1)c1cc(O)c(O)c(OC(=O)c2cc(O)c(O)c(O)c2)c1 (stereo partly drawn) [drawing 25] | 15.94% | 98.26% | 82.32 |  |  | 
COc1ccc(N(C)C(=S)Nc2ccc3nc(-c4ccco4)c(-c4ccco4)nc3c2)cc1 [drawing 44] | 8.332% | 81.17% | 72.84 |  |  | 
CC1=NOC(=O)/C1=C/c1ccc(-c2ccc(Cl)cc2)o1 [drawing 53] |  |  |  | 38.47% | 101.5% | 65.98
CC1=C(C#N)C(=O)N=C(O)/C1=C\c1ccc(-c2ccc(S(N)(=O)=O)cc2)o1 [drawing 84] | 21.8% | 98.2% | 76.4 |  |  | 
O=C1NC(=O)N(CCC2=CCCCC2)C(=O)/C1=C/c1cnc(-c2ccccc2)nc1 [drawing 98] |  |  |  | 43.51% | 106.9% | 63.4
CCOc1cc(C(Nc2cccnc2)c2ccc3cccnc3c2O)ccc1O (stereo not drawn) [drawing 145] | −0.3% | 108.4% | 108.7 |  |  | 
